Data reported in PubChem BioAssay (NCI).
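Five concentrations, 48 hours, 96-well plates. TGI: total growth inhibition.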

Experiments:
Experiment in all cases: growth of human tumour cells (NCI), 48 h
MCF7 breast = tested on: MCF7 breast
HCT-116 colon = tested on: HCT-116 colon
LOX IMVI melanoma = tested on: LOX IMVI melanoma
NCI-H226 lung = tested on: NCI-H226 lung
SN12C renal = tested on: SN12C renal
HT29 colon = tested on: HT29 colon
RPMI-8226 leukemia = tested on: RPMI-8226 leukemia
SNB-75 CNS = tested on: SNB-75 CNS
BT-549 breast = tested on: BT-549 breast
UACC-257 melanoma = tested on: UACC-257 melanoma
SF-295 CNS = tested on: SF-295 CNS
NCI-H460 lung = tested on: NCI-H460 lung
HOP-92 NSCLC = tested on: HOP-92 NSCLC
MALME-3M melanoma = tested on: MALME-3M melanoma
SF-268 CNS = tested on: SF-268 CNS
UACC-62 melanoma = tested on: UACC-62 melanoma
K-562 leukemia = tested on: K-562 leukemia
HCC-2998 colon = tested on: HCC-2998 colon
SW-620 colon = tested on: SW-620 colon
M14 melanoma = tested on: M14 melanoma
TK-10 renal = tested on: TK-10 renal
MOLT-4 leukemia = tested on: MOLT-4 leukemia
T-47D breast = tested on: T-47D breast
HCT-15 colon = tested on: HCT-15 colon
SNB-19 CNS = tested on: SNB-19 CNS
NCI/ADR-RES ovarian = tested on: NCI/ADR-RES ovarian
SK-MEL-5 melanoma = tested on: SK-MEL-5 melanoma
KM12 colon = tested on: KM12 colon
MDA-MB-435 = tested on: MDA-MB-435
HS 578T breast = tested on: HS 578T breast
NCI-H522 lung = tested on: NCI-H522 lung
COLO 205 colon = tested on: COLO 205 colon
NCI-H23 lung = tested on: NCI-H23 lung
EKVX NSCLC = tested on: EKVX NSCLC
PC-3 prostate = tested on: PC-3 prostate
SK-MEL-2 melanoma = tested on: SK-MEL-2 melanoma
CCRF-CEM leukemia = tested on: CCRF-CEM leukemia
MDA-N = tested on: MDA-N
UO-31 renal = tested on: UO-31 renal
SR leukemia = tested on: SR leukemia
OVCAR-5 ovarian = tested on: OVCAR-5 ovarian
RXF 393 renal = tested on: RXF 393 renal
MDA-MB-231 breast = tested on: MDA-MB-231 breast
SK-OV-3 ovarian = tested on: SK-OV-3 ovarian
HOP-62 NSCLC = tested on: HOP-62 NSCLC
HL-60(TB) leukemia = tested on: HL-60(TB) leukemia
U251 CNS = tested on: U251 CNS
ACHN renal = tested on: ACHN renal
DU-145 prostate = tested on: DU-145 prostate
A549 NSCLC = tested on: A549 NSCLC
OVCAR-3 ovarian = tested on: OVCAR-3 ovarian
SK-MEL-28 melanoma = tested on: SK-MEL-28 melanoma
786-0 renal = tested on: 786-0 renal
A498 renal = tested on: A498 renal
CAKI-1 renal = tested on: CAKI-1 renal
IGROV1 ovarian = tested on: IGROV1 ovarian
OVCAR-4 ovarian = tested on: OVCAR-4 ovarian
OVCAR-8 ovarian = tested on: OVCAR-8 ovarian
SF-539 CNS = tested on: SF-539 CNS

## CN(C)c1ccc(C2SCC(=O)N2c2nc3cc4sc(N5C(=O)CSC5c5ccc(N(C)C)cc5)nc4cc3s2)cc1 (stereo not drawn)
MCF7 breast
  TGI: > 100 µM
HCT-116 colon
  TGI: > 100 µM
LOX IMVI melanoma
  TGI: > 100 µM
NCI-H226 lung
  TGI: 73.1 µM
SN12C renal
  TGI: > 100 µM
HT29 colon
  TGI: > 100 µM
RPMI-8226 leukemia
  TGI: > 100 µM
SNB-75 CNS
  TGI: > 100 µM
BT-549 breast
  TGI: > 100 µM
UACC-257 melanoma
  TGI: > 70 µM
SF-295 CNS
  TGI: > 100 µM
NCI-H460 lung
  TGI: > 28.3 µM
HOP-92 NSCLC
  TGI: > 100 µM
MALME-3M melanoma
  TGI: > 100 µM
SF-268 CNS
  TGI: > 100 µM
UACC-62 melanoma
  TGI: > 100 µM
K-562 leukemia
  TGI: > 100 µM
HCC-2998 colon
  TGI: > 100 µM
SW-620 colon
  TGI: > 100 µM
M14 melanoma
  TGI: > 100 µM
TK-10 renal
  TGI: > 100 µM
MOLT-4 leukemia
  TGI: > 100 µM
T-47D breast
  TGI: > 100 µM
HCT-15 colon
  TGI: > 100 µM
SNB-19 CNS
  TGI: > 100 µM
NCI/ADR-RES ovarian
  TGI: > 76.3 µM
SK-MEL-5 melanoma
  TGI: > 100 µM
KM12 colon
  TGI: > 100 µM
MDA-MB-435
  TGI: > 100 µM
HS 578T breast
  TGI: > 100 µM
NCI-H522 lung
  TGI: > 100 µM
COLO 205 colon
  TGI: > 100 µM
NCI-H23 lung
  TGI: > 100 µM
EKVX NSCLC
  TGI: > 100 µM
PC-3 prostate
  TGI: > 100 µM
SK-MEL-2 melanoma
  TGI: > 100 µM
CCRF-CEM leukemia
  TGI: > 100 µM
MDA-N
  TGI: > 100 µM
UO-31 renal
  TGI: > 100 µM
SR leukemia
  TGI: > 100 µM
OVCAR-5 ovarian
  TGI: > 100 µM
RXF 393 renal
  TGI: > 100 µM
MDA-MB-231 breast
  TGI: > 100 µM
SK-OV-3 ovarian
  TGI: > 100 µM
HOP-62 NSCLC
  TGI: > 100 µM
HL-60(TB) leukemia
  TGI: > 100 µM
U251 CNS
  TGI: > 100 µM
ACHN renal
  TGI: > 100 µM
DU-145 prostate
  TGI: > 87.2 µM
A549 NSCLC
  TGI: > 100 µM
OVCAR-3 ovarian
  TGI: > 100 µM
SK-MEL-28 melanoma
  TGI: > 100 µM
786-0 renal
  TGI: > 100 µM
A498 renal
  TGI: > 100 µM
CAKI-1 renal
  TGI: > 100 µM
IGROV1 ovarian
  TGI: > 100 µM
OVCAR-4 ovarian
  TGI: > 100 µM
OVCAR-8 ovarian
  TGI: > 100 µM
SF-539 CNS
  TGI: > 100 µM

## CCCCCNC(=O)c1cc2cc(CCl)ccc2oc1=O
MCF7 breast
  TGI: > 87.4 µM
HCT-116 colon
  TGI: > 38.5 µM
LOX IMVI melanoma
  TGI: > 72.8 µM
NCI-H226 lung
  TGI: 30.1 µM
SN12C renal
  TGI: 3.67 µM
HT29 colon
  TGI: 9.58 µM
RPMI-8226 leukemia
  TGI: > 100 µM
SNB-75 CNS
  TGI: 13.1 µM
BT-549 breast
  TGI: > 46.3 µM
UACC-257 melanoma
  TGI: 6.56 µM
SF-295 CNS
  TGI: 24.7 µM
NCI-H460 lung
  TGI: 3.3 µM
HOP-92 NSCLC
  TGI: 3.71 µM
MALME-3M melanoma
  TGI: 7.5 µM
SF-268 CNS
  TGI: 12.4 µM
UACC-62 melanoma
  TGI: 7.15 µM
K-562 leukemia
  TGI: > 100 µM
HCC-2998 colon
  TGI: 18.9 µM
SW-620 colon
  TGI: > 100 µM
M14 melanoma
  TGI: > 51.4 µM
TK-10 renal
  TGI: 2.85 µM
MOLT-4 leukemia
  TGI: > 100 µM
T-47D breast
  TGI: 2.98 µM
HCT-15 colon
  TGI: 6.22 µM
SNB-19 CNS
  TGI: > 69 µM
NCI/ADR-RES ovarian
  TGI: > 66.8 µM
SK-MEL-5 melanoma
  TGI: > 51.2 µM
KM12 colon
  TGI: > 44.5 µM
MDA-MB-435
  TGI: > 60.8 µM
HS 578T breast
  TGI: > 54.7 µM
NCI-H522 lung
  TGI: 17.1 µM
COLO 205 colon
  TGI: 2.79 µM
NCI-H23 lung
  TGI: 11.5 µM
EKVX NSCLC
  TGI: 9.94 µM
PC-3 prostate
  TGI: 2.81 µM
SK-MEL-2 melanoma
  TGI: 19.8 µM
CCRF-CEM leukemia
  TGI: > 100 µM
MDA-N
  TGI: > 94.2 µM
UO-31 renal
  TGI: 3.07 µM
SR leukemia
  TGI: > 100 µM
OVCAR-5 ovarian
  TGI: 7.99 µM
RXF 393 renal
  TGI: 1.78 µM
MDA-MB-231 breast
  TGI: 3.72 µM
SK-OV-3 ovarian
  TGI: 10.3 µM
HOP-62 NSCLC
  TGI: 14 µM
HL-60(TB) leukemia
  TGI: 10.5 µM
U251 CNS
  TGI: 36.6 µM
ACHN renal
  TGI: 4.52 µM
DU-145 prostate
  TGI: 5.95 µM
A549 NSCLC
  TGI: 14.1 µM
OVCAR-3 ovarian
  TGI: 26.6 µM
SK-MEL-28 melanoma
  TGI: > 100 µM
786-0 renal
  TGI: 2.82 µM
A498 renal
  TGI: 3.98 µM
CAKI-1 renal
  TGI: 2.57 µM
IGROV1 ovarian
  TGI: 18.6 µM
OVCAR-4 ovarian
  TGI: 26.6 µM
OVCAR-8 ovarian
  TGI: > 100 µM
SF-539 CNS
  TGI: 16.8 µM
